Results as given in US6214859A, “Ethylamine derivatives” (Fujimoto Brothers Co., Ltd., priority 1997, dated 2001).
Counter-ions that a name gives are not always drawn.

Columns and labels:
[1] = Toxicity screening using primary cultured hepatocyte (LDH release); assay type: cell-based, rat; conditions: rat, primary hepatocytes, 24 hr, control 0.5% saline or 0.5% DMSO, read-out: Percent control of LDH release
Procedure: The hepatocytes was prepared from rat liver by collagenase perfusion method and suspension containing 5×10^5 cells/ml were prepared. After cultivation for 24 hr, the suspension was exchanged to the William's Medium E (GIBCO BRL) containing 10 or 100 μM of the compounds of this invention. After cultivation for 24 hr, the activity of lactate dehydrogenase (LDH) released in the medium was measured.

[2] = tested on: dopamine release, striatum; assay: Release of biogenic amines from brain tissue: dopamine, striatum; assay type: in vivo, Wistar rats; conditions: 0.01 mg/kg s.c.
Procedure: (§1) The method described in Life Sci., 56, 611-620 (1995) was used. After Wistar rats were decapitated, appropriate brain samples, which were striatun, substantia nigra, tuberculum olfactorium, locus coeruleus and raphe, were removed quickly and soaked in oxygenated (95% O2 and 5% CO2) Krebs solution at 37° C. The composition of Krebs solution was as follows in […]: NaCl 111, KCl 4.7, CaCl2 2.5, MgSO4 1.64, NaHCO3 25, KH2 PO4 1.2, glucose 11, 50 mg/l ascorbic add and 20 mg/l EDTA-2 Na. The preparations, soaked in one organ bath, were as follows: 1) four pieces of striatum (each halved), 2) four pieces of substantia nigra, 3) four pieces of tuberculum olfactorium; 4) eight pieces of locus coeruleus; 5) eight pieces of raphe. After incubation of the appropriate tissue for 20 min, the Krebs solution was replaced, the tissue soaked for 20 min in Krebs solution dissolving the compounds of this invention and the amount of biogenic amine released during this period of time was estimate. The compounds of this invention and PPAP, control compound, were dissolved in saline and were administered subcutaneously before 30 min to removing brain sample. For measuring noradrenaline and dopamine, samples were purified on 60 mg alumina containing micro columns (BDH Chemicals Ltd.) according to the method described in J. Pharmacol. Exp. Ther., 138, 360-372 (1962) For measuring serotonin, samples were purified on 15 mg Sephadex G-10 micro columns (Pharmacia). Dopamine, noradrenaline and serotonin were determined by high performance liquid chromatography (Waters 746 data module) with electrochemical detection (Waters 460 electrochemical detector). Waters Resolve 5μ Spherical C18 3.9×150 mm column was used as separating column and triethylamine-phosphate buffer (pH 5.2), containing 200 mg/l octane sulfonate sodium and 18 mg/l EDTA-2 Na with 6% acetonitrile, was used as mobile phase. The release amount of appropriate amine was noted as nmol/g tissue released for 20 min. deference of means tested by Student's t-test and significant level was set at P<.05.

[3] = tested on: dopamine release, substantia nigra; assay: Release of biogenic amines from brain tissue: dopamine, substantia nigra; assay type: in vivo, Wistar rats; conditions: 0.01 mg/kg s.c.
Procedure: as §1

[4] = tested on: noradrenaline release, locus coeruleus; assay: Release of biogenic amines from brain tissue: noradrenaline, locus coeruleus; assay type: in vivo, Wistar rats; conditions: 0.01 mg/kg s.c.
Procedure: as §1

[5] = tested on: rats reduced learning ability by tetrabenazine; assay: Conditioned avoidance task in the shuttle box (tetrabenazine-treated rats); assay type: in vivo, rat; conditions: tetrabenazine 1 mg/kg s.c., significance and direction
Procedure: The method described in Life Sci., 58, 817-827 (1996) was used. The effects on conditioned avoidance reflex (CARs) was analyzed in the shuttle box using male and female rats (weighing 200-220 g) whose leaning abilities were reduced by treatment of tetrabenazine. The instrument was constructed, according to the device described in Psychopharmacologia 10, 1-5 (1966) by the Research Institute for Electrical Industry (Budapest, Hungary). The male and female rats (weighing 200-220 g) were trained to cross the berrier under the influence of a conditioned stimulus (CS) (light flash and buzzer sounds). […] And the performance which was not related to this condition was noted as an intersignal reaction (IR). The rats were trained with 100 trials per day for 5 days. One trial consisted of 15 sec intertrial interval. The saline solution of tetrabenazine was administered at a dose of 1 mg/kg subcutaneously before one hour prior to the test and then the solution of the compounds of this invention were administered at the doses of 1, 2, 2.5 and 5 mg/kg subcutaneously with the simultaneous administration of tetrabenazine. The nmbers of CARs, EFs and IRs were automatically counted and evaluated by multi-way analysis of variance (ANOVA).

serotonin release, raphe = assay: Release of biogenic amines from brain tissue: serotonin, raphe; assay type: in vivo, Wistar rats; conditions: 0.01 mg/kg s.c.
Procedure: as §1

[6] = tested on: dopamine release, tuberculum olfactorium; assay: Release of biogenic amines from brain tissue: dopamine, tuberculum olfactorium; assay type: in vivo, Wistar rats; conditions: 0.01 mg/kg s.c.
Procedure: as §1

Structure (SMILES): CCCC(Cc1ccc2c(c1)OCO2)NC(CC)CC (stereo not shown) [Compound No. 31]
- activity at 24 h, 10 µM [1]: 102.5 ± 0.84%
- activity at 24 h, 100 µM [1]: 153 ± 4.35%

Structure (SMILES): CCCNC(CCC)Cc1ccc2cc[nH]c2c1.Cl (stereo not shown) [compound 22, 1-(Indol-6-yl)-2-propylaminopentane Hydrochloride]
- Release of dopamine, striatum [2]: 6.5 ± 0.06 nmol/g tissue, for 20 min
- Release of dopamine, substantia nigra [3]: 11.9 ± 0.39 nmol/g tissue, for 20 min
- Release of noradrenaline, locus coeruleus [4]: 4.8 ± 0.05 nmol/g tissue, for 20 min
- Condition Avoidance Reflex (CARs) ([5]; 0.5 mg/kg s.c.): * .Arrow-up bold.
- Condition Avoidance Reflex (CARs) ([5]; 1 mg/kg s.c.): *** .Arrow-up bold.
- Condition Avoidance Reflex (CARs) ([5]; 5 mg/kg s.c.): **** .Arrow-up bold.
- Escape Failures (EFs) ([5]; 5 mg/kg s.c.): * .dwnarw.
- Release of serotonin, raphe (serotonin release, raphe): 0.322 ± 0.01 nmol/g tissue, for 20 min
- Release of dopamine, tuberculum olfactorium [6]: 9.7 ± 0.17 nmol/g tissue, for 20 min

Structure (SMILES): CCCNC(CCC)Cc1cc2ccccc2s1.Cl (stereo not shown) [compound 38, 1-(2-Benzothienyl)-2-propylaminopentane Hydrochloride]
- Release of dopamine, striatum [2]: 7.9 ± 0.19 nmol/g tissue, for 20 min
- Release of dopamine, substantia nigra [3]: 14.0 ± 0.23 nmol/g tissue, for 20 min
- Release of noradrenaline, locus coeruleus [4]: 3.6 ± 0.05 nmol/g tissue, for 20 min
- Escape Failures (EFs) ([5]; 1 mg/kg s.c.): **** .dwnarw.
- Condition Avoidance Reflex (CARs) ([5]; 2.5 mg/kg s.c.): **** .Arrow-up bold.
- Intersignal Reactions (IRs) ([5]; 2.5 mg/kg s.c.): * .Arrow-up bold.
- Release of serotonin, raphe (serotonin release, raphe): 0.375 ± 0.02 nmol/g tissue, for 20 min
- Release of dopamine, tuberculum olfactorium [6]: 11.5 ± 0.14 nmol/g tissue, for 20 min

Structure (SMILES): CCCCNC(CCC)Cc1ccc2c(c1)OCO2.Cl (stereo not shown) [Compound No. 29, 1-(1,3-Benzodioxol-5-yl)-2-butylaminopentane Hydrochloride]
- Condition Avoidance Reflex (CARs) ([5]; 2.5 mg/kg s.c.): * .Arrow-up bold.
- Condition Avoidance Reflex (CARs) ([5]; 5 mg/kg s.c.): *** .Arrow-up bold.
- Intersignal Reactions (IRs) ([5]; 5 mg/kg s.c.): *** .dwnarw.
- activity at 24 h, 10 µM [1]: 103 ± 6.02%
- activity at 24 h, 100 µM [1]: 101 ± 2.94%

Structure (SMILES): CCCC(Cc1ccc2c(c1)OCO2)NC(C)CC (stereo not shown) [Compound No. 30]
- Condition Avoidance Reflex (CARs) ([5]; 5 mg/kg s.c.): **** .Arrow-up bold.
- Intersignal Reactions (IRs) ([5]; 5 mg/kg s.c.): * .dwnarw.
- activity at 24 h, 10 µM [1]: 99.5 ± 5.44%
- activity at 24 h, 100 µM [1]: 138 ± 4.57%

Structure (SMILES): CCCNC(CCC)Cc1cc2ccccc2[nH]1 (stereo not shown) [Compound No. 19, 1-(Indol-2-yl)-2-propylaminopentane Hydrochloride]
- activity at 24 h, 10 µM [1]: 82.4 ± 8.34%
- activity at 24 h, 100 µM [1]: 180 ± 5.54%

Structure (SMILES): CCCNC(CCC)Cc1ccc2c(c1)OCCO2 (stereo not shown) [Compound No. 35, 1-(1,4-Benzodioxan-6-yl)-2-propylaminopentane Hydrochloride]
- activity at 24 h, 10 µM [1]: 103 ± 10.6%
- activity at 24 h, 100 µM [1]: 147 ± 5.07%

Structure (SMILES): CCCNC(CCC)Cc1ccc2c(c1)CCO2 (stereo not shown) [Compound No. 36, 1-(2,3-Dihydrobenzofuran-5-yl)-2-propylaminopentane Hydrochloride]
- activity at 24 h, 10 µM [1]: 101 ± 2.24%
- activity at 24 h, 100 µM [1]: 111 ± 6.58%

Structure (SMILES): CCCNC(CCC)Cc1csc2ccccc12.Cl (stereo not shown) [compound 39, 1-(3-Benzothienyl)-2-propylaminopentane Hydrochloride]
- Release of dopamine, striatum [2]: 7.1 ± 0.15 nmol/g tissue, for 20 min
- Release of dopamine, substantia nigra [3]: 12.0 ± 0.34 nmol/g tissue, for 20 min
- Release of noradrenaline, locus coeruleus [4]: 4.1 ± 0.15 nmol/g tissue, for 20 min
- Escape Failures (EFs) ([5]; 1 mg/kg s.c.): *** .dwnarw.
- Condition Avoidance Reflex (CARs) ([5]; 2.5 mg/kg s.c.): **** .Arrow-up bold.
- Escape Failures (EFs) ([5]; 2.5 mg/kg s.c.): **** .dwnarw.
- Release of serotonin, raphe (serotonin release, raphe): 0.256 ± 0.01 nmol/g tissue, for 20 min
- Release of dopamine, tuberculum olfactorium [6]: 10.9 ± 0.25 nmol/g tissue, for 20 min

Structure (SMILES): CCCC(Cc1ccc2c(c1)OCO2)Nc1ccc(C)cc1.Cl (stereo not shown) [Compound No. 33, 1-(1,3-Benzodioxol-5-yl)-2-p-toluidinopentane Hydrochloride]
- Condition Avoidance Reflex (CARs) ([5]; 5 mg/kg s.c.): * .Arrow-up bold.
- Intersignal Reactions (IRs) ([5]; 5 mg/kg s.c.): * .dwnarw.
- activity at 24 h, 10 µM [1]: 94 ± 4.16%
- activity at 24 h, 100 µM [1]: 152 ± 5.71%

Structure (SMILES): CCCNC(CCC)Cc1ccc2cc(OC)ccc2c1 (stereo not shown) [Compound No. 15]
- Condition Avoidance Reflex (CARs) ([5]; 5 mg/kg s.c.): * .Arrow-up bold.

Structure (SMILES): CCCNC(CCC)Cc1ccc2c(c1)CCC2.Cl (stereo not shown) [Compound No. 37, 1-(Indan-5-yl)-2-propylaminopentane Hydrochloride]
- Condition Avoidance Reflex (CARs) ([5]; 5 mg/kg s.c.): * .Arrow-up bold.
- activity at 24 h, 10 µM [1]: 83.8 ± 5.65%
- activity at 24 h, 100 µM [1]: 193 ± 8.51%

Structure (SMILES): CCCC(Cc1ccc2ccccc2c1)NCC(C)(C)C (stereo not shown) [Compound No. 14]
- activity at 24 h, 10 µM [1]: 108 ± 4.18%
- activity at 24 h, 100 µM [1]: 131 ± 7.08%
